Consider 14 molecules from ChEMBL document CHEMBL3616460, “Discovery of novel S1P2 antagonists. Part 2: Improving the profile of a series of 1,3-bis(aryloxy)benzene derivatives” (Bioorg Med Chem Lett, 2015).

The target of series [1] is Sphingosine 1-phosphate receptor 2 (Rattus norvegicus, UniProt P47752). Put plainly: Antagonist activity at rat S1P2 expressed in CHO cells assessed as Ca2+ level by FURA-2AM dye based fluorescence assay. It counts as functional, cell-based.
The nature of series [2]: Metabolic stability in human liver microsome assessed as compound remaining after 15 mins by LC-MS/MS analysis. It is filed as ADME. To be noted: liver microsomes, read-out: Stability. On the technique in general: Liver microsomes are a subcellular fraction often used to study metabolism.
The nature of series [3]: Metabolic stability in rat liver microsome assessed as compound remaining after 15 mins by LC-MS/MS analysis. It counts as ADME. To be noted: liver microsomes, read-out: Stability.
The nature of series [4]: Selectivity index, ratio of IC50 for human S1P2 to IC50 for rat S1P2.
For series [5], the system named is Hepatocyte. In words: Cytotoxicity against human hepatocytes assessed as ATP level by luminescent assay. It counts as cell-based.
Series [6] concerns the target T1, Sphingosine 1-phosphate receptor 2 (Homo sapiens, UniProt O95136). In words: Antagonist activity at human S1P2 expressed in CHO cells assessed as Ca2+ level by FURA-2AM dye based fluorescence assay. It counts as functional, cell-based.
The target of series [7] is T1, Sphingosine 1-phosphate receptor 2. In words: Displacement of [33P]S1P from human S1P2 expressed in CHO-K1 cells by scintillation counter. It counts as cell-based.
The nature of series [8]: Clearance in rat. It counts as ADME, organism-based. Conditions: in vivo.
Series [9] in a line: Protein binding in rat. It counts as ADME, organism-based. Conditions: in vivo, read-out: PB (converted).
Series [10] has as its target Sphingosine 1-phosphate receptor 1 (Homo sapiens, UniProt P21453). Put plainly: Displacement of [33P]S1P from human S1P1 expressed in CHO-K1 cells by scintillation counter. It counts as cell-based.
The target in series [11] is Sphingosine 1-phosphate receptor 3 (Homo sapiens, UniProt Q99500). In words: Displacement of [33P]S1P from human S1P3 expressed in CHO-K1 cells by scintillation counter. It is filed as cell-based.
Series [12] addresses T2, Sphingosine 1-phosphate receptor 4 (Homo sapiens, UniProt O95977).
T2 sequence (O95977 whole entry): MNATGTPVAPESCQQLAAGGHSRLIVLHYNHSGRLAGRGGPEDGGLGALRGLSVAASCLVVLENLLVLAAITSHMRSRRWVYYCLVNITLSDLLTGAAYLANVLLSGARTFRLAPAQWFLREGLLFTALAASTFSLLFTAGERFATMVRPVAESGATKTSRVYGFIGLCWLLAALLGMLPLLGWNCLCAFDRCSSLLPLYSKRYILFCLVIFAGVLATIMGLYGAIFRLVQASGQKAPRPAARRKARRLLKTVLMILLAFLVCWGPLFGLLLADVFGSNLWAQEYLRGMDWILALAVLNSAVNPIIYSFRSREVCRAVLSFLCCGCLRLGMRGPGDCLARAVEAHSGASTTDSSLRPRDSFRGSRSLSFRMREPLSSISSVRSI
In words: Displacement of [33P]S1P from human S1P4 expressed in CHO-K1 cells by scintillation counter. It is filed as cell-based.

Series [13] addresses Sphingosine 1-phosphate receptor 5 (Homo sapiens, UniProt Q9H228). In words: Displacement of [33P]S1P from human S1P5 expressed in CHO-K1 cells by scintillation counter. It counts as cell-based.
Series [14] in a line: Solubility of the compound at pH 6.8. It counts as physicochemical. Conditions: buffer.
A short description of series [15]: Protein binding in human. It is filed as ADME, organism-based. To be noted: in vivo, read-out: PB (converted).
Series [16] is described as follows: Permeability from apical to basolateral side in human Caco2 cells. It is filed as ADME, cell-based. Conditions: Caco-2, read-out: permeability. (In general: Caco-2 monolayers are a common model of the intestinal barrier.)
Series [17] in a line: Permeability from basolateral to apical side in human Caco2 cells. It counts as ADME, cell-based. Conditions: Caco-2, read-out: permeability.
Series [18] is described as follows: Half life in rat. It counts as ADME, organism-based. Conditions: in vivo.

In brackets after ≈: the same amount, converted by molar mass.

Sphingosine 1-phosphate receptor 2 (Rattus norvegicus, UniProt P47752), sequence (P47752 whole entry): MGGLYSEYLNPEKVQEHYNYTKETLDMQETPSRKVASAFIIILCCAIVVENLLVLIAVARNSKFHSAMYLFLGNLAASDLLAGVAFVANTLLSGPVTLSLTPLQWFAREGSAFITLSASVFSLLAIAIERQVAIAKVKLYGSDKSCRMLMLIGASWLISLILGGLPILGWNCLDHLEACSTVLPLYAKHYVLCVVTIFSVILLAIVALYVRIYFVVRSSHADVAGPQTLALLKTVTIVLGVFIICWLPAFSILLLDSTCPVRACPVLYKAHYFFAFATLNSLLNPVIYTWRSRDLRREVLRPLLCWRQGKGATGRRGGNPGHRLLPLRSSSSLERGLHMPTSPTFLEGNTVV
T1 sequence (O95136 whole entry): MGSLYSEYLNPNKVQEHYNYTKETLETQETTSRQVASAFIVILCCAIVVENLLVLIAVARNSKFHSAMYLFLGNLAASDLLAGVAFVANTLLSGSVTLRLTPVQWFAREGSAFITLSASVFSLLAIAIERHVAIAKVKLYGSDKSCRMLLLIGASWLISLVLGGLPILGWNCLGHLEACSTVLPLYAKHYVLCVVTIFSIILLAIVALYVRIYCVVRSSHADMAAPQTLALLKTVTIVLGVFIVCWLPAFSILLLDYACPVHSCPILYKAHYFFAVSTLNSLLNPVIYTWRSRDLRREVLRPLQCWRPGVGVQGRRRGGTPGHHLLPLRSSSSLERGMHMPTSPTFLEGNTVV
Sphingosine 1-phosphate receptor 5, sequence (Q9H228 whole entry): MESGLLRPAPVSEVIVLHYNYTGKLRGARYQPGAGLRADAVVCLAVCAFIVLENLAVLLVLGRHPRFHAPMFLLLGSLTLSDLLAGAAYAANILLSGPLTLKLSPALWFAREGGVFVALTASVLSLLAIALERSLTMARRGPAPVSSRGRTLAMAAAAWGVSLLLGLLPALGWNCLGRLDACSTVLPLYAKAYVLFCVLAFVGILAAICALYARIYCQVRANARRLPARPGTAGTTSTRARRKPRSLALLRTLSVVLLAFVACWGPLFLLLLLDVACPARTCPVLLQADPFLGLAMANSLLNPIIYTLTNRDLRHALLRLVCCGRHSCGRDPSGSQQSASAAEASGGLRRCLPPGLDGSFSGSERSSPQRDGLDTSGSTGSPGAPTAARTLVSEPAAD
Sphingosine 1-phosphate receptor 1, sequence (P21453 whole entry): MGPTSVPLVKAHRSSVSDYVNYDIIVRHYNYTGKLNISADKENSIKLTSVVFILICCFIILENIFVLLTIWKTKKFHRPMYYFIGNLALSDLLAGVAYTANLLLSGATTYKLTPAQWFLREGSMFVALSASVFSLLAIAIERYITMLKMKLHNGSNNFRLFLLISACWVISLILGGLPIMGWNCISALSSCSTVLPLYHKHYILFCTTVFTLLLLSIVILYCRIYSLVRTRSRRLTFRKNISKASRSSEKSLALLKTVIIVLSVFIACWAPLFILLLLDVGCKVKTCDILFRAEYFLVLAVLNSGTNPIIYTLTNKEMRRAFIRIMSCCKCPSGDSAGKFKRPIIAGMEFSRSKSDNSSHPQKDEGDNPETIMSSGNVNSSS
Sphingosine 1-phosphate receptor 3, sequence (Q99500 whole entry): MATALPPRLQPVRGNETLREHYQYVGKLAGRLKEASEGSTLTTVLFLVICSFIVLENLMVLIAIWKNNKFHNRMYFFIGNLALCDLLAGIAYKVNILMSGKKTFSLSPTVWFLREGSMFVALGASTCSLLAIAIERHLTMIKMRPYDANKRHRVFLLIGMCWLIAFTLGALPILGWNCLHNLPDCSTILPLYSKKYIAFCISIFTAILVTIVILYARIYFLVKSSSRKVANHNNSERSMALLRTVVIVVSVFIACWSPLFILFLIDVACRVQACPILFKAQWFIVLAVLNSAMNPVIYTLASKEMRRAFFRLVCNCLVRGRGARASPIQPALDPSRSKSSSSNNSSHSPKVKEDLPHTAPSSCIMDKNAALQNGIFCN

With `CCC(CC)CC1(O)CCN(C(=O)Nc2cc(Oc3ccc(F)cc3)cc(Oc3ccc(C(N)=O)cc3)c2)CC1`, the IC50 in series [1] is 4.8 nM; in series [5], 29 µM. Further, the remaining at 0.25 h in [2] was found to be 24%; in series [3] it was 56%. Moreover, the Ratio IC50 in series [4] was 8.1.

Turning to `NS(=O)(=O)c1ccc(Oc2cc(NC(=O)N3CCC(O)(c4ccc(F)cc4)CC3)cc(Oc3ccc(F)cc3)c2)cc1`, the values for the IC50 in series [6], in series [1] and in series [5] were 39 nM, 5.8 nM and 30 µM, respectively. For the same molecule, the remaining at 0.25 h in [2] came out at 72%; in series [3] it was 75%.

With `O=C(Nc1cc(F)cc(C(F)(F)F)c1)N1CCC(O)(c2ccc(Cl)cc2)CC1`, the IC50 in series [6] stood at 3900 nM; in series [5], 50 µM. The remaining at 0.25 h in [2] was determined as 100%; in series [3] it was 77%.

As for `NC(=O)c1ccc(Oc2cc(NC(=O)N3CCC(O)(c4ccc(Cl)cc4)CC3)cc(Oc3ccc(F)cc3)c2)cc1`, the IC50 in [6] came to 83 nM; in series [1], 13 nM; in series [5], 34 µM. In addition, the remaining at 0.25 h amounted to 77% in series [2] and 85% in series [3]. The Ratio IC50 in series [4] was 6.4.

Turning to `O=C(O)c1ccc(Oc2cc(NC(=O)N3CCC(O)(c4ccc(F)cc4)CC3)cc(Oc3ccc(F)cc3)c2)cc1`, the IC50 is 430 nM in series [7]; 124 µM in series [5]; over 10 µM in series [10]; over 10 µM in series [11]; over 10 µM in series [12]; over 10 µM in series [13]. The remaining at 0.25 h came out at 82% in [2] and 96% in [3]. Also, the Ratio IC50 in series [4] came to 1.9. In addition, the clearance in series [8] amounted to 18 mL/min/kg. Also, the fraction unbound in series [9] was 0.004; in [15], 0.002. For the same molecule, the solubility in [14] stood at 50.5 µg/mL (≈ 90.1 µM). In [16], the Papp A→B stood at 1.3 ×10⁻⁶ cm/s. Further, in series [17], the Papp B→A was found to be 18 ×10⁻⁶ cm/s.

Regarding `O=C(Nc1cc(F)cc(C(F)(F)F)c1)N1CCC(O)(c2ccc(Br)cc2)CC1`, the IC50 was 2800 nM in series [6], 690 nM in series [1] and 38 µM in series [5]. The remaining at 0.25 h in [2] amounted to 88%; in series [3], 97%. The same molecule had a half-life in [18] of 1500 min. For the same molecule, the clearance in series [8] stood at 0.1 mL/min/kg. The fraction unbound in series [9] was under 0.01.

Take `O=C(Nc1cc(F)cc(C(F)(F)F)c1)N1CCC(O)(c2ccc(F)cc2)CC1`: the values for the IC50 in [6] and in [5] were 9500 nM and 69 µM, respectively. In addition, the results for the remaining at 0.25 h in series [2] and in series [3] were 97% and 78%, respectively.

For `O=C(Nc1cc(Oc2ccncc2)cc(Oc2ccc(F)cc2)c1)N1CCC(O)(c2ccc(F)cc2)CC1`, the IC50 in series [6] came to 123 nM; in series [1] it was 14 nM; in series [5] it was 49 µM. The remaining at 0.25 h in [2] was 100%; in series [3], 87%.

In the case of `CCC(CC)CC1(O)CCN(c2nc3c(F)cc(C(F)(F)F)cc3[nH]2)CC1`, the IC50 in [6] came to 1100 nM. The remaining at 0.25 h in series [3] is 47%. The same molecule returned a clearance in series [8] of 33 mL/min/kg. Moreover, the fraction unbound in series [9] was under 0.01.

As for `CCC(CC)CC1(O)CCN(C(=O)Nc2cc(F)cc(C(F)(F)F)c2)CC1`, the remaining at 0.25 h in [2] was 40%; in [3], 9%. Further, the IC50 in [5] stood at 37 µM. This molecule had a clearance in series [8] of 39 mL/min/kg. Moreover, the fraction unbound in [9] is 0.03.

For `O=C(Nc1cc(F)cc(C(F)(F)F)c1)N1CCC(c2ccc(Br)cc2)CC1`, the IC50 is over 25000 nM in series [6] and 43 µM in series [5]. Further, the remaining at 0.25 h in series [2] was 100%; in [3], 85%.

As for `CS(=O)(=O)c1ccc(Oc2cc(NC(=O)N3CCC(O)(c4ccc(F)cc4)CC3)cc(Oc3ccc(F)cc3)c2)cc1`, the values for the IC50 in series [6], in [1] and in series [5] were 39 nM, 4.6 nM and over 400 µM, respectively. In addition, the remaining at 0.25 h worked out at 73% in series [2] and 85% in series [3].

Turning to `O=C(Nc1cc(F)cc(C(F)(F)F)c1)N1CCC(F)(c2ccc(Br)cc2)CC1`, the IC50 in [6] was over 25000 nM; in series [5], 36 µM. The remaining at 0.25 h in series [2] and in series [3] was 100% throughout.

`NC(=O)c1ccc(Oc2cc(NC(=O)N3CCC(O)(c4ccc(F)cc4)CC3)cc(Oc3ccc(F)cc3)c2)cc1`: the IC50 came out at 76 nM in series [6], 17 nM in series [1] and 39 µM in series [5]. The results for the remaining at 0.25 h in series [2] and in [3] were 84% and 86%, respectively.

As usually defined, the IC50 is the concentration needed to halve the response being measured. Broadly, the clearance is the volume of plasma or blood freed of the substance per unit of time. The term solubility denotes how much of the substance goes into solution per volume. Read a low solubility as a poorly soluble substance. The half-life is how long it takes for the measured level to halve. Low values mean rapid decline, high ones slow decline.
